# From DBAASP
# Several values for one entry are separate records, joined by “and”; a condition that tells them apart may be missing. Equal values may be shown once.
# Columns and labels:
# Assay in all cases: ≥ marks a high value that may be exact or a test limit, other limits are often not marked, values filed in µg/mL are converted to µM
# [1] = tested on: Acinetobacter junii RT-4
# [2] = tested on: Staphylococcus aureus ATCC 33592
# [3] = tested on: Staphylococcus aureus ATCC BAA-44
# [4] = tested on: Enterococcus faecalis ATCC 29212
# [5] = tested on: Schizosaccharomyces pombe
# [6] = tested on: Escherichia coli ATCC 9637
# [7] = tested on: Staphylococcus aureus ATCC 43300
# [8] = tested on: Acinetobacter baumannii ATCC 19606
# [9] = tested on: Staphylococcus aureus ATCC 700698
# [10] = tested on: Escherichia coli D21
# [11] = tested on: Staphylococcus capitis 1
# [12] = tested on: Candida albicans ATCC 10231
# [13] = tested on: Saccharomyces cerevisiae
# [14] = tested on: Staphylococcus epidermidis ATCC 12228
# [15] = tested on: Staphylococcus aureus Cowan 1
# [16] = tested on: Pseudomonas aeruginosa ATCC 27583
# [17] = tested on: Pseudomonas syringae pv. tabaci 1918NCPPB
# [18] = tested on: Aeromonas hydrophila Rt-6
# [19] = tested on: Streptococcus pyogenes ATCC 21547
# [20] = tested on: Staphylococcus aureus ATCC 29213
# [21] = tested on: Staphylococcus aureus ATCC 700699
# [22] = tested on: Yersinia pseudotuberculosis YPIII
# [23] = tested on: Cryptococcus neoformans
# [24] = tested on: Pseudomonas aeruginosa ATCC 15692
# [25] = tested on: Klebsiella pneumoniae ATCC 27736
# [26] = tested on: Bacillus megaterium Bm11
# [27] = tested on: Pseudomonas aeruginosa ATCC 27853
# [28] = tested on: Enterococcus faecium ATCC 700221
# [29] = tested on: Klebsiella pneumoniae ATCC 700603
# [30] = tested on: Bacillus subtilis ATCC 6633
# [31] = tested on: Pseudomonas aeruginosa
# [32] = tested on: Acinetobacter baumannii ATCC BAA-747
# [33] = tested on: Pseudomonas aeruginosa ATCC BAA-427
# [34] = tested on: Candida parapsilosis ATCC 22019
# [35] = tested on: Acinetobacter baumannii Josh 230
# [36] = tested on: Acinetobacter baumannii Josh 28
# [37] = tested on: Escherichia coli BW25113
# [38] = tested on: Escherichia coli ATCC 25922
# [39] = tested on: Klebsiella pneumoniae J3702
# [40] = tested on: Escherichia coli BB2013-30
# [41] = tested on: Enterobacter cloacae BB2012-181
# [42] = tested on: Klebsiella aerogenes St. L P63
# [43] = tested on: Pseudomonas aeruginosa J4228
# [44] = tested on: Enterobacter cloacae St. L P23
# [45] = tested on: Escherichia coli ARLG-1012
# [46] = tested on: Klebsiella pneumoniae Oschner KP-1
# [47] = tested on: Klebsiella pneumoniae BB2009-209
# [48] = tested on: Pseudomonas aeruginosa BB2013-100
# [49] = tested on: Escherichia coli JW55034
# [50] = tested on: Enterobacter cloacae BB2013-32
# [51] = tested on: Enterobacter asburiae St. L P23
smiles,measurement,setting,value
CC[C@H](C)[C@H](NC(=O)[C@H](CCCNC(=N)N)NC(=O)CNC(=O)[C@H](CC(C)C)NC(=O)[C@H](Cc1ccccc1)NC(=O)[C@H](CCCCN)NC(=O)[C@H](CO)NC(=O)[C@H](Cc1ccccc1)NC(=O)[C@H](Cc1c[nH]c2ccccc12)NC(=O)[C@H](CCC(N)=O)NC(=O)[C@@H](NC(=O)[C@@H](N)Cc1ccccc1)C(C)C)C(=O)N[C@@H](CC(C)C)C(N)=O [FVQWFSKFLGRIL],MIC,[1],3 µM
same,MIC,[2],3.6 µM
same,MIC,[3],3.6 µM
same,MIC,[4],6 µM
same,MIC,[5],6 µM
same,MIC,[6],12.5 µM
same,MIC,[7],4 µM
same,MIC,[8],6 µM
same,MIC,[9],3.6 µM
same,MIC,[10],11 µM
same,MIC,[11],1.5 µM
same,MIC,[12],12 µM
same,MIC,[13],6 µM
same,MIC,[14],1.94 µM
same,MIC,[15],2.74 µM
same,MIC,[16],≥ 32 µM
same,MIC,[17],6 µM
same,MIC,[18],≥ 40 µM
same,MIC,[19],6 µM
same,MIC,[20],3.6 µM
same,MIC,[21],3.6 µM
same,MIC,[22],3 µM
same,MIC,[23],12 µM
same,MIC,[24],21.9 µM
same,MIC,[25],11.4 µM
same,MIC,[26],1.94 µM
same,MIC,[27],> 48 µM
same,MIC,[28],8 µM
same,MIC,[29],16 µM
same,MIC,[30],7.6 µM
same,MIC,[31],64 µM
same,MIC,[32],4 µM
same,MIC,[33],7.6 µM
same,MIC,[34],12 µM
CC[C@H](C)[C@H](NC(=O)CN)C(=O)N[C@@H](CCCCN)C(=O)N[C@H](C(=O)N[C@@H](CCCN=C(N)N)C(=O)N[C@@H](CCCCN)C(=O)N[C@@H](CC(C)C)C(=O)N[C@@H](Cc1ccccc1)C(=O)N[C@@H](CCCCN)C(=O)N[C@@H](CCCCN)C(=O)N[C@@H](CC(C)C)C(=O)N[C@@H](CC(C)C)C(=O)N[C@@H](CCCN=C(N)N)C(N)=O)[C@@H](C)CC [GIKIRKLFKKLLR],MIC,[35],9.92 µM
same,MIC,[36],2.48 µM
same,MIC,[37],4.96 µM
same,MIC,[38],2.74 µM and 5.48 µM
same,MIC,[39],19.8 µM
same,MIC,[40],9.92 µM
same,MIC,[41],19.8 µM
same,MIC,[42],19.8 µM
same,MIC,[43],4.96 µM
same,MIC,[44],19.8 µM
same,MIC,[45],4.96 µM
same,MIC,[46],19.8 µM
same,MIC,[47],19.8 µM
same,MIC,[48],19.8 µM
same,MIC,[27],2.48 µM
same,MIC,[49],4.96 µM
same,MIC,[50],19.8 µM
same,MIC,[51],19.8 µM
